Residues, ends and D or L forms follow the SMILES beside them. *: point of attachment. Palmitoyl = CCCCCCCCCCCCCCCC(=O)*
Columns and labels:
[1] = Diamagnetic susceptibility; assay type: physicochemical; conditions: dimensionless
[2] = In vivo skin penetration study #1, Tape Stripping method (active magnetic array vs passive finger application); set-up: species or system human
Experimental: An in vivo skin penetration study was conducted to establish the effect of using a skin care product of the present invention by applying a skin care composition comprising Pal-KTTKS (SEQ ID NO: 1) with an applicator comprising a magnetic array. The study compared the penetration of the Pal-KTTKS (SEQ ID NO: 1) in combination with a variety of magnetic arrays (active application) to the penetration of Pal-KTTKS (SEQ ID NO: 1) applied with a finger (passive application). Penetration of Pal-KTTKS (SEQ ID NO: 1) in this example is determined according to the Tape Stripping method. In this example, the level of Pal-KTTKS (SEQ ID NO: 1) present in the extract from each tape strip was measured using HPLC and the results normalized to the protein level measured on the tape strip.
(§1) This method provides a suitable means of measuring the amount of skin care active present in skin, and comparing active versus passive application of the skin care active. Two identical rectangular areas of 15 cm^2 are marked on the volar forearms of volunteers. A measured dose (approximately 30 mg) of the Pal-KTTKS (SEQ ID NO: 1) formulation is applied to the delineated areas using a screw actuated syringe. Active application is carried out on one of the delineated areas using the three-quarter profile of a purpose made applicator (e.g., an applicator presenting one of the magnetic arrays set forth in Table 2). Passive application is accomplished on the other delineated area using the tip of a finger in a sweeping motion identical to that of the active application. The formulation is spread evenly across the entire delineated region using a sweeping motion with a fixed speed of approximately 23 cm/s to […]. The application period is 30 seconds during which time visual inspection is used to ensure even distribution and absorption of the formulation by skin. The application area is then left uncovered for a further 30 minutes to ensure complete absorption. Tape strip samples may be collected and/or analyzed immediately after the complete absorption is ensured or after a waiting period (e.g., after multiple applications of the formulation over multiple hours or days).
(§2) The tape stripping procedure is carried out using 10 commercial pre-cut 22.1 mm tape stripping adhesive discs (e.g., D-SQUAME brand tape strips, available from Cuderm Corporation, or equivalent) with an adhesive area of 3.8 cm^2. The 10 tape strips are applied sequentially to the same sampling site, which ideally enables each tape strip to obtain a sample from deeper within the stratum corneum than the tape strip that preceded it. A 22.1 mm diameter circular region is marked at the center of the application area. A tape stripping adhesive disc is placed over the marked area and even pressure applied using, for example, a neoprene roller, rolled ten times over the adhesive disc. The adhesive disc is removed from the skin surface in a single pulling motion using manual tweezers. To ensure even removal of the skin sample, subsequent discs are removed in a “north, south, east and west” orientation, which is within the skill of the ordinary artisan. Each adhesive disc is non-destructively analyzed for protein content using a suitable instrument (e.g., SquameScan™ 850 instrument commercially available from Heiland Electronics Wetzlar, Germany, or equivalent). The adhesive disc is then immediately placed into a glass vial containing extraction solvent in preparation for subsequent analysis. Solvent extractions are conducted on each tape strip using conventional extraction methods, which are well known to those of ordinary skill in the art, and measuring the amount of Pal-KTTKS (SEQ ID NO: 1) present in the extract, for example, by high performance liquid chromatography (“HPLC”) and/or mass spectrometry.
The procedure is repeated for the remaining nine strips. An additional strip is obtained from outside the area of application of the skin care formulation to serve as a blank sample. […]

[3] = Ex vivo skin penetration study (Franz cell, magnetic arrays moved above epidermis); assay type: in vitro ADME, human; conditions: arrays 1 (uni-directional, 27 mT) and 2 (bi-directional, overall 21 mT) of Table 1; 400 μg/ml in 50:50 PG:PB pH 4
Experimental: An ex vivo skin penetration study was conducted to compare the ability of different magnetic arrays to enhance penetration of Pal-KTTKS (SEQ ID NO: 1) into the epidermis of human skin. The dermis and epidermis of human skin samples obtained from donors aged 60-65 years were heat separated and the dermis discarded. 20 μL of a Pal-KTTKS (SEQ ID NO: 1) containing composition (400 μg/ml in 50:50 PG:PB at pH 4) was placed on human epidermis in Franz cell. Different magnetic arrays were positioned approximately 1.0 mm above the epidermis samples and moved over the samples at the speed a user might move a cosmetic applicator when applying a skin care product (e.g., about 20-25 cm/sec). Samples were taken and measured at 0, 1, 2, 4, 6, 8, 24 hours. […] For the bi-directional arrays herein, the “1st layer” refers to the layer closest to the skin-contacting surface of the applicator, and the “2nd layer” refers to the layer disposed on the side of the 1st layer opposite the side closest to the skin-contacting surface.

[4] = In vivo skin penetration study #2, Tape Stripping method (magnetic vs non-magnetic applicator); set-up: species or system human
Experimental: as §1, §2
The procedure is repeated for the remaining nine strips. An additional strip is obtained from outside the area of application of the skin care formulation to serve as a blank sample. The amount of active is normalized to the amount of protein measured. […]

[5] = magnetic applicator with array #8, average across all 10 test sites, in ng (unit assumed)
[6] = non-magnetic applicator, average across all 10 test sites, in ng (unit assumed)

CCCCCCCCCCCCCCCC(=O)N[C@@H](CCCCN)C(=O)N[C@H](C(=O)N[C@H](C(=O)N[C@@H](CCCCN)C(=O)N[C@@H](CO)C(=O)O)[C@@H](C)O)[C@@H](C)O [Pal-KTTKS, palmitoyl-lysine-threonine-threonine-lysine-serine] (Palmitoyl-KTTKS-OH; C-terminus assumed)
diamagnetic susceptibility [1]: approximately −519 | Enhancement (active/passive) ([2]; array #4, tape strips 2-4, from average values of Table 11): 1.54 | Enhancement (active/passive) ([2]; array #4, tape strips 5-7, from average values of Table 11): 2.18 | Enhancement (active/passive) ([2]; array #4, tape strips 8-10, from average values of Table 11): 2.98 | Enhancement (active/passive) ([2]; array #9, tape strips 2-4, from average values of Table 9): 4.19 | Enhancement (active/passive) ([2]; array #9, tape strips 5-7, from average values of Table 9): 2.38 | Enhancement (active/passive) ([2]; array #9, tape strips 8-10, from average values of Table 9): 3.78 | penetration enhancement compared with other magnetic arrays ([2]; magnetic array #4 (uni-directional)): better penetration enhancement than some of the other magnetic arrays tested | penetration enhancement compared with other magnetic arrays ([2]; magnetic array #9 (bi-directional)): better penetration enhancement than some of the other magnetic arrays tested | penetration enhancement of Pal-KTTKS into human epidermis [3]: demonstrated the best penetration enhancement | Enhancement value Strips 2-10 (active/passive), Avg ([4]; array #8 vs non-magnetic applicator, average of the enhancement values of all test sites): 4 | Sum 2-10 of Pal-KTTKS recovered, active application, Avg [4, 5]: 42.02 | Sum 6-10 of Pal-KTTKS recovered, active application, Avg [4, 5]: 22.74 | Sum 2-10 of Pal-KTTKS recovered, passive application, Avg [4, 6]: 20.55 | Sum 6-10 of Pal-KTTKS recovered, passive application, Avg [4, 6]: 10.01
